Test results reported in patent US9498455B2, “Cinacalcet and neuroblastic tumours” (HOSPITAL SAINT JOAN DE DEU, priority 2012, dated 2016).

How the values were obtained:
wild type SK-N-LP cells = assay: CASR activation by calcium after serum deprivation, wild type or pCMV-GFP SK-N-LP cells; format: cell-based; conditions: 3 mM CaCl2 after 16 hours serum deprivation; wild type or pCMV-GFP transfected
Experimental: (§1) Wild type SK-N-LP cells stably transfected with pCMV-GFP or pCMV-CASR-GFP (1×10^6) in RPMI 10% FBS were seeded in P100 plates. The medium was substituted the next day with a serum-free medium (calcium-free DMEM supplemented with 0.2% bovine albumin, 4 mM L-glutamine and 0.5 mM CaCl2). This was maintained for 16 hours before substituting it with the same medium supplemented or not supplemented with up to 3 mM CaCl2. […] In the latter cell lines, indications of cell death were detected, but the cells continued to proliferate until reaching confluence, whereas cells with overexpression of CASR completely disappeared in 5 days.

[1] = test system: SK-N-LP cells with overexpression of CASR; assay: CASR activation by calcium after serum deprivation, SK-N-LP cells with overexpression of CASR; format: cell-based
Experimental: as §1
In order to determine if the cell death process occurred by means of apoptosis, total proteins of wild type SK-N-LP cells (WT) and cells with overexpression of CASR (CASR) were extracted 24 and 48 hours after exposure to this model. The proteins were subjected to SDS-PAGE gel electrophoresis, transferred to a nitrocellulose membrane and incubated with specific antibodies to detect activated caspase 3 and c-PARP (Cell Signaling). Suitable secondary antibodies labeled with peroxidase were used, and it was developed with the Amersham ECL system.

SK-N-LP = assay: Cell viability (MTS) after 72 hours, SK-N-LP neuroblastoma cell line; format: cell-based; conditions: no unit in table, tested concentrations given in μM, read-out: IC50 (drug concentration causing the death of 50% of the cells with respect to the control)
Experimental: (§2) 5×10^3 cells of each cell line (LAN-1, SK-N-BE(2)c, LA1-55n, LA1-5s, SK-N-LP, SK-N-JD, SK-N-AS) were seeded in 96-well plates (6 replicates per condition). The initial medium (RPMI 10% FBS) was removed the next day and substituted with the same medium containing several concentrations (100 μM, 65 μM, 30 μM, 25 μM, 20 μM, 15 μM, 10 μM, 5 μM, 3 μM, 1 μM, 0.3 μM) of cinacalcet (Selleck Biochemicals) or NPS R-568 (Tocris) or equivalent amounts of DMSO (Sigma-Aldrich). Cell viability was evaluated after 72 hours by means of quantifying the percentage of viable cells by means of the Promega CellTiter 96(r) Aqueous One Solution Cell Proliferation Assay (MTS) system. It was thus observed that both drugs induced a decrease in cell viability in the 7 cell lines examined (FIG. 2), and that in 5 of said cell lines the IC50 (drug concentration causing the death of 50% of the cells with respect to the control) of cinacalcet was less than that of NPS R-568 in a statistically significant manner (Table 1). In the case of SK-N-AS and LA1-55n cell lines, the difference in the effect promoted by both drugs was not statistically significant (Table 1).

SK-N-JD = assay: Cell viability (MTS) after 72 hours, SK-N-JD neuroblastoma cell line; format: cell-based; conditions: no unit in table, tested concentrations given in μM, read-out: IC50 (drug concentration causing the death of 50% of the cells with respect to the control)
Experimental: as §2

SK-N-AS = assay: Cell viability (MTS) after 72 hours, SK-N-AS neuroblastoma cell line; format: cell-based; conditions: Homo sapiens, no unit in table, tested concentrations given in μM, read-out: IC50 (drug concentration causing the death of 50% of the cells with respect to the control)
Experimental: as §2

LAN-1 = assay: Cell viability (MTS) after 72 hours, LAN-1 neuroblastoma cell line; format: cell-based; conditions: LAN1, LAN-1, 72 hours, no unit in table, tested concentrations given in μM, read-out: IC50 (drug concentration causing the death of 50% of the cells with respect to the control)
Experimental: as §2

LA1-55n = assay: Cell viability (MTS) after 72 hours, LA1-55n neuroblastoma cell line; format: cell-based; conditions: no unit in table, tested concentrations given in μM, read-out: IC50 (drug concentration causing the death of 50% of the cells with respect to the control)
Experimental: as §2

LA1-5s = assay: Cell viability (MTS) after 72 hours, LA1-5s neuroblastoma cell line; format: cell-based; conditions: no unit in table, tested concentrations given in μM, read-out: IC50 (drug concentration causing the death of 50% of the cells with respect to the control)
Experimental: as §2

SK-N-BE(2)C = assay: Cell viability (MTS) after 72 hours, SK-N-BE(2)c neuroblastoma cell line; format: cell-based; conditions: no unit in table, tested concentrations given in μM, read-out: IC50 (drug concentration causing the death of 50% of the cells with respect to the control)
Experimental: as §2

[2] = test system: Xenografts of LAN-1 cell line; assay: In vivo model of neuroblastoma, LAN-1 xenografts, morphological examination; design: species or system athymic nu/nu mice; conditions: LAN-1 xenograft, oral 100 mg/kg 6 days a week from day 12, sacrificed after 40 days
Experimental: (§3) Xenografts of LAN-1 and SK-N-LP cell lines were generated for which aliquots containing 10×10^6 cells from said cell lines were inoculated subcutaneously in 4-6 week old female athymic nu/nu mice (Charles Rivers). Starting from day 12, when the forming tumor could already be measured using Vernier calipers, oral treatment was started 6 days a week with cinacalcet 100 mg/kg (FIGS. 3C-3F) and with the carrier as a negative control (FIGS. 3A and 3B). The tumor volume was measured every 2-3 days. The mice were sacrificed after 40 days. Each tumor was weighed before being sectioned into two halves: one half was frozen in liquid nitrogen for expression analysis and the other half was fixed and embedded in paraffin for morphological examination and immunohistochemical analyses.

[3] = test system: Xenografts of SK-N-LP cell line; assay: In vivo model of neuroblastoma, SK-N-LP xenografts, morphological examination; design: species or system athymic nu/nu mice; conditions: SK-N-LP xenograft, oral 100 mg/kg 6 days a week from day 12, sacrificed after 40 days
Experimental: as §3

For `[Ca+2].[Cl-].[Cl-]` [CaCl2], the “Cell death (morphology)” value (wild type SK-N-LP cells) was “hardly appreciable”, the “Cell death (morphology)” value ([1]; 3 mM CaCl2 after 16 hours serum deprivation) was “suffered cell death” and the “Caspase 3 activation and PARP cleavage (Western blot)” value ([1]; 24 and 48 hours after exposure to 3 mM CaCl2 model) was “accompanied by caspase 3 activation and PARP cleavage”.

Compound `COc1cccc([C@@H](C)NCCCc2ccccc2Cl)c1` [NPS R-568] has an IC50 (SK-N-LP) of 22.4 µM, an IC50 (SK-N-JD) of 25.8 µM and an IC50 (SK-N-AS) of 15.1 µM. The IC50 (LAN-1) was 24.8 µM, the IC50 (LA1-55n) was 11.4 µM and the IC50 (LA1-5s) was 34.5 µM. For the same compound, the IC50 (SK-N-BE(2)C) was 16.6 µM.

Compound `C[C@@H](NCCCc1cccc(C(F)(F)F)c1)c1cccc2ccccc12` [Cinacalcet, cinacalcet] has an IC50 (SK-N-LP) of 10.3 µM, an IC50 (SK-N-JD) of 10.9 µM and an IC50 (SK-N-AS) of 10.3 µM. It also gave an IC50 (LAN-1) of 17.2 µM, an IC50 (LA1-55n) of 10.5 µM and an IC50 (LA1-5s) of 16.7 µM. For the same compound, the “Morphological analysis of the xenografts: cell death” value [2] was “large areas with necrosis and/or apoptosis”, the “Morphological analysis of the xenografts: differentiation” value [2] was “morphological signs of differentiation in viable cells” and the “Morphological analysis of the xenografts: cell death” value [3] was “large areas with necrosis and/or apoptosis”. For the same compound, the “Morphological analysis of the xenografts: differentiation” value [3] was “morphological signs of differentiation in viable cells” and the IC50 (SK-N-BE(2)C) was 10.7 µM.
